One experiment concerns primary cortical neurons. Kind of experiment: cells. Type of experiment: cell-based, mouse. Conditions: Mus musculus, Primary cortical neuron; 100 μM hemin, primary cortical neurons; read-out: EC50 for reduction of hemin-induced toxicity/ferroptosis. The protocol: Primary cortical neuronal cultures: Primary cortical neurons were collected from embryonic (E15) CD1 mice. The cortices of the mice were dissected, homogenized, and plated in minimum essential medium containing 10% fetal bovine serum (FBS), 5% horse serum, and 1% penicillin/streptomycin in 96-well plates, 6-well plates, or 10-cm dishes. The neurons were maintained at 37° C. with 5% CO2. All experiments were conducted 24 hours after plating.
In vitro ICH model: Ferroptosis is a type of programmed cell death that is dependent on iron, and is characterized by the accumulation of lipid peroxides. Ferroptosis is genetically and biochemically distinct from other forms of regulated cell death such as apoptosis. Ferroptosis is initiated by the failure of the glutathione-dependent antioxidant defenses, resulting in unchecked lipid peroxidation and eventual cell death.
Cell death was induced in primary cortical neurons by treating the neurons with hemin, a blood breakdown product. For the neuroprotection studies, cells were treated with hemin (100 μM) in the presence of NAC (0.1 mM to 1mM), 6-hydroxy-2,5,7,8-tetramethylchroman-2-carboxylic acid (trolox; 0.1 μM to 100 μM), β-carotene (0.1 μM to 100 μM) α-lipoic acid (0.01 mM to 2 mM), glutathione ethyl ester (1 mM to 10 mM), oxothiazolidine-4-carboxylate (1 mM to 10 mM), cystamine (0.1 μM to 10 μM), or nordihydroguaiaretic acid (0.1 μM to 10 μM). Cell viability was analyzed 24 h after treatment. The cells were rinsed with warm phosphate-buffered saline (PBS) and assessed using an MTT assay. The fidelity of the MTT assays in measuring viability was verified by calcein-AM/ethidium homodimer-1 staining (Live/Dead assay).
The ability of NAC to protect cells was investigated in a hemin model of hemorrhagic stroke. The in vitro model of ICH involved the administration of hemin, a breakdown product of hemoglobin from lysed blood, to trigger cell death. Treatment of primary cortical neurons with 100 μM hemin induced widespread cell death through a ferroptotic mechanism, which was quantified with MTT and qualitatively observed using live/dead staining. Living cells were labeled with calcein-AM, and dead cells were labeled with ethidium homodimer. […] Scale bars: 100 μm.
A systematic pharmacological screening of oxidized lipid species inhibitors in the context of hemin-induced cell death was performed in primary cortical neurons. Primary cortical neurons were co-treated with hemin and a non-specific or enzymatic lipid peroxidation inhibitor. The MTT assays were performed 18 h following the co-treatment.

The test system of a further experiment is lipid protein adducts. Put plainly: Hemin-induced lipid protein adduct formation (Bt-AA, streptavidin-HRP Western blot) in primary neurons. Format: cell-based, mouse. As to the method:
Electrophilic attack by ALOX5 products could alter cellular protein-mediated signaling to trigger cell death. Arachidonic acid (AA) tagged with biotin (Bt-AA) was used to monitor the formation of covalent protein adducts. To test whether hemin was sufficient to catalyze the formation of protein-reactive lipid species, primary neurons were treated with hemin at concentrations of 5 μM-50 μM for 4 h. Lipid protein adducts were detected by Western blots probed with Streptavidin-HRP. Bt-AA incorporation into protein increased with increasing concentrations of hemin, and significant lipid protein adducts were detected at 50 μM hemin. […] The blot is representative from replicates of three experiments. The arrow indicates the decrease in lipid protein adduct formation.
For orientation: Immunoblotting shows a protein as a band on a membrane.

The next experiment deals with total glutathione. Put plainly: Total glutathione levels in striatum of collagenase-infused ICH mice by HPLC. Format: in vivo, mouse. The note with it: ICH mice after NAC treatment. The source says:
Total glutathione levels were unchanged after NAC treatment in ICH mice. […] FIG. 29 illustrates an experimental design to study the effect of NAC on total glutathione levels in the striatum of a collagenase infusion mouse model of ICH.

From US11963939B2, “Use of N-acetylcysteine to treat central nervous system disorders” (Neuronasal, Inc., priority 2017, dated 2024) come the findings set out here.

On to `CC(=O)N[C@@H](CS)C(=O)O` [NAC, N-acetylcysteine], for which, in the experiment on primary cortical neurons, the EC50 came out at 500 µM. In addition, in the experiment on lipid protein adducts (non-protective doses: NAC 0.1 mM, vitamin E 1 μM, zileuton 1 μM), the AA-protein adduct formation entry is recorded as “did not decrease AA-protein adduct formation”. Also, in the experiment with lipid protein adducts (protective doses: NAC 1 mM, vitamin E 10 μM, zileuton 10 μM), the “Lipid protein adduct formation” value was “decreased lipid protein adduct formation”. Further, the “Total glutathione levels in striatum” value in the experiment with total glutathione was “unchanged”.
